Data on three compounds can be found in PMC7773174 (Tetrahedron letters, 2020).

Values after ≈ are worked out from the molar mass of the structure shown. Bounds are passed on as bounds.

The subject of one data set is MRSA. The note with it: cited from earlier work.
Data set [1] concerns Escherichia coli (MC4100). Description: MIC, broth dilution antimicrobial susceptibility. The data set is classed as cell-based. The note with it: highest value of three independent trials.
The test system of data set [2] is red blood cell (RBC), mechanically defibrillated sheep's blood. In kind it is cell-based.
Data set [3] concerns CA-MRSA (Staphylococcus aureus USA 300-0114). Description: MIC, broth dilution antimicrobial susceptibility. In kind it is cell-based. The note with it: S. aureus USA 300-0114; highest value of three independent trials.
Data set [4] has as its system MSSA (Staphylococcus aureus SH1000). Nature of the data set: MIC, broth dilution antimicrobial susceptibility. The note with it: S. aureus SH1000; highest value of three independent trials. In kind it is cell-based.
Data set [5] concerns Pseudomonas aeruginosa (PAO1). Nature of the data set: MIC, broth dilution antimicrobial susceptibility. The data set is classed as cell-based. The note with it: highest value of three independent trials.
The test system of data set [6] is HA-MRSA (Staphylococcus aureus ATCC 33591). Description: MIC, broth dilution antimicrobial susceptibility. The data set is classed as cell-based. Conditions: S. aureus ATCC 33591; highest value of three independent trials.
In data set [7] the test system is Enterococcus faecalis (OG1RF). Description: MIC, broth dilution antimicrobial susceptibility. The data set is classed as cell-based. Conditions: highest value of three independent trials.
Data set [8] can be described thus: Partition coefficient by extraction with n-octanol and deionized water. In kind it is physicochemical.
Data set [9] has as its system plasma binding proteins, namely retinoid binding proteins. Nature of the data set: Binding to plasma binding proteins. In kind it is in vitro ADME. The note with it: unpublished data.
The nature of a further data set: Solubility within serum. In kind it is physicochemical. Conditions: preliminary analysis.

Regarding `O=C(O)c1ccc2cc(-c3ccc(O)c(C45CC6CC(CC(C6)C4)C5)c3)ccc2c1` [Compound 1, CD437, reference compound], the “minimum inhibitory concentration (MIC)” value in the data set on MRSA (ref [5]) is 1 µg/mL (≈ 2.51 µM).
With “benzalkonium chloride [BAC, reference compound]”, in data set [1], the “Minimum Inhibitory Concentration E. coli” value was 32 µM. For the same compound, the Lysis20 in [2] was 32 µM. For the same compound, the “Minimum Inhibitory Concentration CA-MRSA” value in [3] came out at 4 µM. Further, the “Minimum Inhibitory Concentration MSSA” value in data set [4] was 2 µM. Also, the “Minimum Inhibitory Concentration P. aeruginosa” value in [5] amounted to 125 µM. For the same compound, the “Minimum Inhibitory Concentration HA-MRSA” value in [6] was 4 µM. Also, in data set [7], the “Minimum Inhibitory Concentration E. faecalis” value stood at 125 µM.
As for `OCc1ccc2cc(-c3ccc(O)c(C45CC6CC(CC(C6)C4)C5)c3)ccc2c1` [Compound 2], the “Minimum Inhibitory Concentration E. coli” value in data set [1] is greater than 250 µM. Also, the “P (partition coefficient)” value in data set [8] (average over 3 independent trials) came to 9.16. The compound also came in with a logP in data set [8] (triplicate, ± standard deviation) of 0.93 ± 0.20. This compound yielded a Lysis20 in data set [2] of 125 µM. Moreover, the “Minimum Inhibitory Concentration CA-MRSA” value in [3] turned out to be 2 µM. The “Minimum Inhibitory Concentration MSSA” value in data set [4] turned out to be 2 µM. Moreover, in data set [5], the “Minimum Inhibitory Concentration P. aeruginosa” value is greater than 250 µM. Besides, the “binding to plasma binding proteins” value in [9] is reported as “high levels of binding”. The minimum inhibitory concentration (MIC) in the data set with MRSA (ref [6]–[7]) is 2 µg/mL (≈ 5.2 µM). For the same compound, the solubility within serum result in “Solubility within serum” is “low solubility”. Further, the “Minimum Inhibitory Concentration HA-MRSA” value in data set [6] was found to be 2 µM. Further, the “Minimum Inhibitory Concentration E. faecalis” value in data set [7] was greater than 250 µM.
